IC50 data for two molecules are collected here from PubChem BioAssay AID1926 (The Scripps Research Institute Molecular Screening Center, 2009).

The experiment concerns the target VIM-2 metallo-beta-lactamase (Pseudomonas aeruginosa) (UniProt Q932Y6). Description: VIM-2 inhibitor FRET-based artefact check, dose response, artefact control for selective VIM-2 inhibitor project, biochemical, FRET readout, CCF2 substrate (AID 1926). Particulars: purified VIM-2, CCF2 FRET substrate hydrolysis.

Molecules are shown by their SMILES. The source made the active and inactive calls.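 How the source made its calls: active means IC50 half-maximal inhibitory concentration at or below 10 µM; inactive means IC50 above 10 µM.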

The term IC50 denotes the concentration needed to halve the response being measured. As for `O=C(c1ccco1)N1N=C(c2ccc(Cl)cc2)CC1c1ccco1` (configuration not stated), the IC50 was 1.61 µM.

Consider `O=C(O)C1Sc2[nH]c(=O)sc2C2c3cc(Cl)ccc3OC(=O)C12` (configuration not stated), for which the IC50 was > 59.6 µM (inactive).
